Experimental data from patent publication US20260217706A1, “HETEROCYCLIC COMPOUNDS, PREPARATION METHOD THEREFOR AND USE THEREOF” (GUANGZHOU YUFAN NANTU BIOTECHNOLOGIES CO., LTD, priority 2023, published 2026).

Tests used:
[1] = test system: anti-CD3 activated human PBMCs; assay: Effect of compounds on the level of IL-2 secretion by anti-CD3 activated human PBMCs (IL-2 ELISA); format: cell-based; details: compound concentration at which fold change in IL-2 = 5; hPBMCs, CD3 antibody 2 μg/mL, 48 h, compound from 3 μM
How it was run: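 Human PBMCs were preincubated 1 h, then exposed to compound (10 points, 3-fold from 3 μM final) with anti-CD3 at 2 μg/mL for 48 h at 37° C. Supernatant IL-2 was measured by ELISA as fold change over DMSO.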

CBL-B protein = CBL-B protein (Homo sapiens, UniProt Q13191); assay: CBL-B binding experiment (Streptavidin-Tb cryptate / Ligand L1 displacement); details: 8 nM CBL-B protein, 25° C., 60 minutes; Ki=Relative IC50/2
How it was run: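 Buffer was 20 mM HEPES pH 7.5, 150 mM NaCl, 0.01% Triton X-100, 0.5 mM TCEP and BSA. Ten-point compound dilutions were incubated with 8 nM CBL-B for 60 min at 25° C., then read by luminescence after another 60 min at room temperature. IC50 came from a four-parameter fit, with Ki = relative IC50/2.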

CBL-B protein, sequence (Q13191 whole entry): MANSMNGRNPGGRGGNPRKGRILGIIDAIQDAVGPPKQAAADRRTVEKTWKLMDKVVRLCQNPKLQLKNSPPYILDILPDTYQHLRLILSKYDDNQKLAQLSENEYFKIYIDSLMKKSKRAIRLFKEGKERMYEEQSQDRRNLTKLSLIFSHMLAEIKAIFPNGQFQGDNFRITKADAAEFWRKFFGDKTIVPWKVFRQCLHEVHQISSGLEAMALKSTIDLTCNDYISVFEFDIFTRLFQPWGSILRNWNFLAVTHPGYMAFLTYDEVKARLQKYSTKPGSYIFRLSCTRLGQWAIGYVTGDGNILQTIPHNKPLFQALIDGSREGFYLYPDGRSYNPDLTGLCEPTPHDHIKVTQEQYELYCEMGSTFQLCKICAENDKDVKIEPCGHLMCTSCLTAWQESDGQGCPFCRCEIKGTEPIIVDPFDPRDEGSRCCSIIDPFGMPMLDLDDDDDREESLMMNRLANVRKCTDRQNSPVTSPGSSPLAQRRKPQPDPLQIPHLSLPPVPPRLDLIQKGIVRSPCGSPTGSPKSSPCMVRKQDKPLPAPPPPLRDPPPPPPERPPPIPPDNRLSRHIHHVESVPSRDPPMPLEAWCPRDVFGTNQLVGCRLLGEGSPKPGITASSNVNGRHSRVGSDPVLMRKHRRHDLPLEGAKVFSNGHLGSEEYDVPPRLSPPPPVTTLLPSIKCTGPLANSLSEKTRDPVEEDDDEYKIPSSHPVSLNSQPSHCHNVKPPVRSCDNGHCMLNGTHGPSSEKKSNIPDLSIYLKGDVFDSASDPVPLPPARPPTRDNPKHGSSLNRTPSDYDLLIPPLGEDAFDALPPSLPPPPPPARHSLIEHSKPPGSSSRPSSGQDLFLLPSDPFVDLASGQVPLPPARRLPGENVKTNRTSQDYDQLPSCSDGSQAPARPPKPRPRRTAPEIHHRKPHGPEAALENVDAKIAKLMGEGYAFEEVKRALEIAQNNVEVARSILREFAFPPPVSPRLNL

Row | SMILES | IL-2 CFC=5/nM [1] | Ki (CBL-B protein)
1 | CCN(Cc1cc2c(C(F)(F)F)cn(-c3cccc([C@]4(c5nncn5C)C[C@@H](C)C4)c3)c(=O)c2[nH]1)CC(C)C [Compound T069, 2-((ethyl(isobutyl)amino)methyl)-6-(3-((1s,3s)-3-methyl-1-(4-methyl-4H-1,2,4-triazol-3-yl)cyclobutyl)phenyl)-4-(trifluoromethyl)-1,6-dihydro-7H-pyrrolo[2,3-c]pyridin-7-one] | <500 nM | < 50 nM
2 | C[C@H]1CCCN(Cc2cc3c(C(F)(F)F)cn(-c4cccc(C5(c6nncn6C)CC(F)C5)c4)c(=O)c3[nH]2)C1 (stereo partly drawn) [Compound T070, 6-[3-[3-fluoro-1-(4-methyl-1,2,4-triazol-3-yl)cyclobutyl]phenyl]-2-[[(3S)-3-methyl-1-piperidyl]methyl]-4-(trifluoromethyl)-1H-pyrrolo[2,3-c]pyridin-7-one] | <500 nM | < 50 nM
3 | C[C@H]1CCCN(Cc2cc3c(C(F)(F)F)cn(-c4cccc([C@]5(c6nncn6C)C[C@@H](F)C5)c4)c(=O)c3[nH]2)C1 [Compound T071, 6-[3-[3-fluoro-1-(4-methyl-1,2,4-triazol-3-yl)cyclobutyl]phenyl]-2-[[(3S)-3-methyl-1-piperidyl]methyl]-4-(trifluoromethyl)-1-H-pyrrolo[2,3-c]pyridin-7-one] | <500 nM | < 50 nM
4 | C[C@H]1CCCN(Cc2cc3c(C4CC4)cn(-c4cccc(C5(Cc6nncn6C)CC(F)(F)C5)c4)c(=O)c3[nH]2)C1 [Compound T077, 4-cyclopropyl-6-[3-[3,3-difluoro-1-[(4-methyl-1,2,4-triazol-3-yl)methyl]cyclobutyl]phenyl]-2-[[(3S)-3-methyl-1-piperidyl]methyl]-1H-pyrrolo[2,3-c]pyridin-7-one] | <500 nM | < 50 nM
5 | Cn1cnnc1C1(c2cccc(-n3cc(C(F)(F)F)c4cc(CN5CCC[C@@H](CC#N)C5)[nH]c4c3=O)c2)CCC1 [Compound T080, (S)-2-(1-((6-(3-(1-(4-methyl-4H-1,2,4-triazol-3-yl)cyclobutyl)phenyl)-7-oxo-4-(trifluoromethyl)-6,7-dihydro-1H-pyrrolo[2,3-c]pyridin-2-yl)methyl)piperidin-3-yl)acetonitrile] | <500 nM | < 50 nM
6 | C[C@H]1CCCN(Cc2cc3c(C(F)(F)F)cn(-c4cccc(C5(c6nncn6C)CC6(CC6)C5)c4)c(=O)c3[nH]2)C1 [Compound T084, 2-[[(3S)-3-methyl-1-piperidyl]methyl]-6-[3-[5-(4-methyl-1,2,4-triazol-3-yl)spiro[2.3]hexan-5-yl]phenyl]-4-(trifluoromethyl)-1H-pyrrolo[2,3-c]pyridin-7-one] | <500 nM | < 50 nM
7 | CC=C1CC(c2cccc(-n3cc(C(F)(F)F)c4cc(CN5CCC[C@H](C)C5)[nH]c4c3=O)c2)(c2nncn2C)C1 (stereo partly drawn) [Compound T085, 6-[3-[3-ethylidene-1-(4-methyl-1,2,4-triazol-3-yl)cyclobutyl]phenyl]-2-[[(3S)-3-methyl-1-piperidyl]methyl]-4-(trifluoromethyl)-1H-pyrrolo[2,3-c]pyridin-7-one] | <500 nM | < 50 nM
8 | Cn1cnnc1C1(c2cccc(-n3cc(C(F)(F)F)c4cc(CN5C[C@H]6CCCC[C@H]6C5)[nH]c4c3=O)c2)CCC1 [Compound T086, 2-[[(3aS,7aR)-1,3,3a,4,5,6,7,7a-octahydroisoindol-2-yl]methyl]-6-[3-[1-(4-methyl-1,2,4-triazol-3-yl)cyclobutyl]phenyl]-4-(trifluoromethyl)-1H-pyrrolo[2,3-c]pyridin-7-one] | <500 nM | < 50 nM
9 | Cn1cnnc1[C@]1(c2cccc(-n3cc(C(F)(F)F)c4cc(CN5C[C@@H]6CC[C@@H](C6)C5)[nH]c4c3=O)c2)C[C@H](C)C1 [Compound T087, 2-((3-azabicyclo[3.2.1]octan-3-yl)methyl)-6-(3-((1s,3s)-3-methyl-1-(4-methyl-4H-1,2,4-triazol-3-yl)cyclobutyl)phenyl)-4-(trifluoromethyl)-1,6-dihydro-7H-pyrrolo[2,3-c]pyridin-7-one] | <500 nM | < 50 nM
10 | Cn1cnnc1[C@]1(c2cccc(-n3cc(C(F)(F)F)c4cc(CN5CCCC6(CC6)C5)[nH]c4c3=O)c2)C[C@H](C)C1 [Compound T088, 2-((5-azaspiro[2.5]octan-5-yl)methyl)-6-(3-((1s,3s)-3-methyl-1-(4-methyl-4H-1,2,4-triazol-3-yl)cyclobutyl)phenyl)-4-(trifluoromethyl)-1,6-dihydro-7H-pyrrolo[2,3-c]pyridin-7-one] | <500 nM | < 50 nM
11 | Cn1cnnc1C1(c2cccc(-n3cc(C(F)(F)F)c4cc(CNCCCC(F)(F)F)[nH]c4c3=O)c2)CCC1 [Compound T091, 6-[3-[1-(4-methyl-1,2,4-triazol-3-yl)cyclobutyl]phenyl]-2-[(4,4,4-trifluorobutylamino)methyl]-4-(trifluoromethyl)-1H-pyrrolo[2,3-c]pyridin-7-one] | <500 nM | < 50 nM
12 | CC[C@H]1C[C@@](c2cccc(-n3cc(C(F)(F)F)c4cc(CN5CCC[C@H](C)C5)[nH]c4c3=O)c2)(c2nncn2C)C1 [Compound T092, 6-(3-((1r,3R)-3-ethyl-1-(4-methyl-4H-1,2,4-triazol-3-yl)cyclobutyl)phenyl)-2-(((S)-3-methylpiperidin-1-yl)methyl)-4-(trifluoromethyl)-1,6-dihydro-7H-pyrrolo[2,3-c]pyridin-7-one] | <500 nM | < 50 nM
13 | CC[C@H]1C[C@](c2cccc(-n3cc(C(F)(F)F)c4cc(CN5CCC[C@H](C)C5)[nH]c4c3=O)c2)(c2nncn2C)C1 [Compound T093, 6-(3-((1s,3S)-3-ethyl-1-(4-methyl-4H-1,2,4-triazol-3-yl)cyclobutyl)phenyl)-2-(((S)-3-methylpiperidin-1-yl)methyl)-4-(trifluoromethyl)-1,6-dihydro-7H-pyrrolo[2,3-c]pyridin-7-one] | <500 nM | < 50 nM
14 | Cn1cnnc1C1(c2cccc(-n3cc(C(F)(F)F)c4cc(CNCCOC(F)(F)F)[nH]c4c3=O)c2)CCC1 [Compound T096, 6-[3-[1-(4-methyl-1,2,4-triazol-3-yl)cyclobutyl]phenyl]-2-[[2-(trifluoromethoxy)ethylamino]methyl]-4-(trifluoromethyl)-1H-pyrrolo[2,3-c]pyridin-7-one] | <500 nM | < 50 nM
15 | Cn1cnnc1C1(c2cccc(-n3cc(C(F)(F)F)c4cc(CNCCOC5CCCC5)[nH]c4c3=O)c2)CCC1 [Compound T097, 2-[[2-(cyclopentoxy)ethylamino]methyl]-6-[3-[1-(4-methyl-1,2,4-triazol-3-yl)cyclobutyl]phenyl]-4-(trifluoromethyl)-1H-pyrrolo[2,3-c]pyridin-7-one] | <500 nM | < 50 nM
16 | CCNCc1cc2c(C(F)(F)F)cn(-c3cccc(C4(c5nncn5C)CCC4)c3)c(=O)c2[nH]1 [Compound T102, 2-((ethylamino)methyl)-6-(3-(1-(4-methyl-4H-1,2,4-triazol-3-yl)cyclobutyl)phenyl)-4-(trifluoromethyl)-1,6-dihydro-7H-pyrrolo[2,3-c]pyridin-7-one] | <500 nM | < 50 nM
